Source: BindingDB's records for doi:10.1038/nchembio.2174 (Oncology Innovative Medicines Unit, 2016)

biological target: T1, Induced myeloid leukemia cell differentiation protein Mcl-1 [171-327] (Homo sapiens, UniProt Q07820); experiment: TR-FRET Binding A; settings: pH 7.4; 24 °C
T1 construct: 171-327
Description: Compound IC50 values were assessed following a 10-point, half-log10 dilution schema starting at 10 uM compound concentration. The assay was performed in 384-well LV plates (Matrix 4365, Thermo Scientific) and run in the presence and absence of the compound of interest. Each well of 12 uL assay mixture contained 10 mM Tris (pH 7.4), 1 mM DTT, 0.005% Tween-20, 150 mM NaCl, 10% DMSO, 3 nM GST-Mcl-1, 1 nM LanthaScreen Eu-tagged GST antibody (#PV5594, Invitrogen, Life Technologies), and 8 nM fluorescently labeled peptide. Reactions were incubated at 24 °C for 60 min before reading on a Tecan F500 spectrofluorometer with excitation at 340 nm and emission at 620 nm and 665 nm. Subsequently, the ratio of fluorescence emission intensity at 665 nm to 620 nm was calculated for each reaction, and the dose response of the ratio to testing compound concentration was fitted to a select fit model that will provide the best fit quality using automatic parameters to derive IC50 values for each testing compound.

T1 sequence (Q07820 171-327): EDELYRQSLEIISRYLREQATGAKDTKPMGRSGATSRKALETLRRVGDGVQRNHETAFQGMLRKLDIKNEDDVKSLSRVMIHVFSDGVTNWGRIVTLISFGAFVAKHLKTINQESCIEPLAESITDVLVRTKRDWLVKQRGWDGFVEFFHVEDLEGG

Row | SMILES | IC50 [nM] | Ki [nM]
1 | CC(=O)c1cc(OCc2nn(C)c(C)c2-c2cccc3c(CCCOc4cccc5ccccc45)c(C(=O)O)[nH]c23)ccc1B(O)O [7-(3-((3-Acetyl-4-boronophenoxy)methyl)-1,5-dimethyl-1H-pyrazol-4-yl)-3-(3-(naphthalen-1-yloxy)propyl)-1H-indole-2-carboxylic acid, 6] | 4.7 | 1.2
2 | CC(=O)c1cccc(OCc2nn(C)c(C)c2-c2cccc3c(CCCOc4cccc5ccccc45)c(C(=O)O)[nH]c23)c1 [7-(3-((3-Acetylphenoxy)methyl)-1,5-dimethyl-1H-pyrazol-4-yl)-3-(3-(naphthalen-1-yloxy)propyl)-1H-indole-2-carboxylic acid, 8] | 237 | 64
3 | Cc1c(-c2cccc3c(CCCOc4cccc5ccccc45)c(C(=O)O)n(C)c23)c(COc2ccc(B(O)O)c(C=O)c2)nn1C [7-(3-((4-Borono-3-formylphenoxy)methyl)-1,5-dimethyl-1Hpyrazol-4-yl)-1-methyl-3-(3-(naphthalen-1-yloxy)propyl)-1H-indole-2-carboxylic acid, 11] | 4.2 | 1.2
4 | Cc1c(-c2cccc3c(CCCOc4cccc5ccccc45)c(C(=O)O)[nH]c23)c(COc2ccccc2)nn1C [Mcl-1 inhibitor 10] | 383 | 104
5 | CCc1nn(C)c(CC)c1-c1cccc2c(CCCOc3cccc4ccccc34)c(C(=O)O)n(CCN3CCOCC3)c12 [Mcl-1 inhibitor 12] | 5.96 | 1.6

Second part, the compound after the results:

Row | IC50 [nM] | Ki [nM] | SMILES
6 | 59.5 | 16 | Cc1c(-c2cccc3c(CCCOc4cccc5ccccc45)c(C(=O)O)[nH]c23)c(COc2cccc(C=O)c2)nn1C [7-(3-((3-formylphenoxy)methyl)-1,5-dimethyl-1H-pyrazol-4-yl)-3-(3-(naphthalen-1-yloxy)propyl)-1H-indole-2-carboxylic acid, 7]
7 | 3.4 | 0.9 | Cc1c(-c2cccc3c(CCCOc4cccc5ccccc45)c(C(=O)O)[nH]c23)c(COc2ccc(B(O)O)c(C=O)c2)nn1C [7-(3-((4-Borono-3-formylphenoxy)methyl)-1,5-dimethyl-1Hpyrazol-4-yl)-3-(3-(naphthalen-1-yloxy)propyl)-1H-indole-2-carboxylic acid, 5]
